Laboratory results published in patent US20230120597A1, “CO-AGONISTS AT GLP-1 AND GIP RECEPTORS SUITABLE FOR ORAL DELIVERY” (Novo Nordisk A/S, priority 2020, published 2023).
Where two headings read alike, the source gives them in different places. Starred links: 1 amine or outer side, 2 acyl side, 3 side chain; linkers in the order of their positions; H or OH if unused. Non-standard residues stand in square brackets, D forms with d. Residues, ends and D or L forms follow the SMILES beside them. Groups on a side chain read outwards from the residue. *: point of attachment. C18 diacid = O=C(O)CCCCCCCCCCCCCCCCC(=O)*; γGlu = O=C(O)[C@H](CCC(=O)[*:2])N[*:1]; εLys = N[C@@H](CCCCN[*:1])C(=O)[*:2]; Aib = CC(C)(N)C(=O)O

Experiments:
human GIP receptor = target: T1, human GIP receptor (Homo sapiens, UniProt P48546); assay: In vitro functional potency, CRE luciferase reporter gene assay, whole BHK cells expressing hGIPR; assay type: cell-based; settings: BHK CRE luc2P hGIPR cells
T1 construct: expressed in transfected cells; host or cells: BHK (parent line BHKTS13), clone BHK CRE luc2P hGIPR
T1 sequence (P48546 22-466): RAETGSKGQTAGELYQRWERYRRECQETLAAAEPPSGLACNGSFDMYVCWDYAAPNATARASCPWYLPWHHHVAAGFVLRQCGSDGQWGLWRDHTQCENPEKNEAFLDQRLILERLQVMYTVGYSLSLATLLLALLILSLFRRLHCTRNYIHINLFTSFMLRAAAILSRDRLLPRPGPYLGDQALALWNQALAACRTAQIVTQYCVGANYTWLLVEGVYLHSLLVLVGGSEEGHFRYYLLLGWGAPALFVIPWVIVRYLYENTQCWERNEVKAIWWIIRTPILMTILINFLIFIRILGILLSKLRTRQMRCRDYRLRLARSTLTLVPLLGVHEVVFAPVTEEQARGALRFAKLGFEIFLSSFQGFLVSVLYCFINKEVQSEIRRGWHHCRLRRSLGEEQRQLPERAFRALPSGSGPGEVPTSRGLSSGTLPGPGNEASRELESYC

human GLP-1 receptor = target: T2, human GLP-1 receptor (Homo sapiens, UniProt P43220); assay: In vitro functional potency, CRE luciferase reporter gene assay, whole BHK cells expressing hGLP-1R; assay type: cell-based; settings: BHK CRE luc2P hGLP-1R cells
T2 construct: expressed in transfected cells; host or cells: BHK (parent line BHKTS13), clone BHK CRE luc2P hGLP-1R
T2 sequence (P43220 24-463): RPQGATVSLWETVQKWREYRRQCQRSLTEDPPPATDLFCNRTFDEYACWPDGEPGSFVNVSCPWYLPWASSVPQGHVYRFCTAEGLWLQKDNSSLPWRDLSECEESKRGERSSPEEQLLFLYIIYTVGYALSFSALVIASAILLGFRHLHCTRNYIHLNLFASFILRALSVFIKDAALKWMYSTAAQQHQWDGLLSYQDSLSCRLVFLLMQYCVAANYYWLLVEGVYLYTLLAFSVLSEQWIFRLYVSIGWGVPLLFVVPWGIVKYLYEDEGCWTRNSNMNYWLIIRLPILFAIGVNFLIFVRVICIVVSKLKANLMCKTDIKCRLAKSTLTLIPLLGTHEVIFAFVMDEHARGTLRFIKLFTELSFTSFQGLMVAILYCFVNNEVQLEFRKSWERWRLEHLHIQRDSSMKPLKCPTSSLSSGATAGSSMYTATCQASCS

[1] = Pharmacokinetic study in minipigs after i.v. administration; settings: female, Gottingen, minipig, in vivo, iv
Method: The purpose of this example is to determine the half-life in vivo of the derivatives of the present invention after i.v. administration to minipigs, i.e. the prolongation of their time in the body and thereby their time of action. This is done in a pharmacokinetic (PK) study, where the terminal half-life of the derivative in question is determined. By terminal half-life is generally meant the period of time it takes to halve a certain plasma concentration, measured after the initial distribution phase.
Female Gottingen minipigs were obtained from Ellegaard Gottingen Minipigs (Dalmose, Denmark) approximately 7-14 months of age and weighing from approximately 16-35 kg were used in the studies. The minipigs were housed individually and fed restrictedly once daily with SDS minipig diet (Special Diets Services, Essex, UK).
After at 3 weeks of acclimatisation two permanent central venous catheters were implanted in vena cava caudalis in each animal. […]
Plasma was pipetted into Micronic tubes on dry ice and kept at −20° C. until analysed for plasma concentration of the compounds using ELISA, or a similar antibody-based assay, or LCMS. Individual plasma concentration-time profiles were analysed by a non-compartmental model in Phoenix WinNonLin ver. […] (Pharsight Inc., Mountain View, Calif., USA), and the resulting terminal half-lives (harmonic mean) determined.

CC[C@H](C)[C@H](NC(=O)[C@H](Cc1ccccc1)NC(=O)[C@H](CCC(=O)O)NC(=O)[C@H](CCCNC(=N)N)NC(=O)[C@H](C)NC(=O)[C@H](C)NC(=O)[C@H](CCC(N)=O)NC(=O)[C@H](CCCCNC(=O)[C@@H](N)CCCCNC(=O)[C@@H](N)CCCCNC(=O)CC[C@H](NC(=O)CCCCCCCCCCCCCCCCC(=O)O)C(=O)O)NC(=O)[C@H](CCC(=O)O)NC(=O)[C@H](CC(C)C)NC(=O)[C@H](CC(C)C)NC(=O)[C@@H](NC(=O)[C@H](CO)NC(=O)[C@H](Cc1ccc(O)cc1)NC(=O)[C@H](CC(=O)O)NC(=O)[C@H](CO)NC(=O)[C@@H](NC(=O)[C@H](Cc1ccccc1)NC(=O)[C@@H](NC(=O)CNC(=O)[C@H](CCC(=O)O)NC(=O)C(C)(C)NC(=O)[C@@H](N)Cc1ccc(O)cc1)[C@@H](C)O)[C@@H](C)O)[C@@H](C)CC)C(=O)N[C@@H](CC(N)=O)C(=O)N[C@@H](Cc1c[nH]c2ccccc12)C(=O)N[C@@H](CC(C)C)C(=O)N[C@@H](CC(C)C)C(=O)N[C@@H](C)C(=O)NCC(=O)NCC(=O)N1CCC[C@H]1C(=O)N[C@@H](CO)C(=O)N[C@@H](CO)C(=O)NCC(=O)N[C@@H](C)C(=O)N1CCC[C@H]1C(=O)N1CCC[C@H]1C(=O)N1CCC[C@H]1C(=O)N[C@@H](CO)C(=O)O [Compound No. 15] (H-Y[Aib]EGTFTSDYSILLEK([εLys-εLys-γGlu-C18 diacid])QAAREFINWLLAGGPSSGAPPPS-OH)
EC50 (human GIP receptor; 0% HSA, read-out: hGIPR, CRE Luc 0% HSA EC50): 0.0071 nM
EC50 (human GIP receptor; hGIPR, CRE Luc 1% HSA EC50, 1% HSA): 0.138 nM
EC50 (human GLP-1 receptor; 0% HSA, read-out: hGLP-1R, CRE Luc 0% HSA EC50): 0.005 nM
EC50 (human GLP-1 receptor; hGLP-1R, CRE Luc 1% HSA EC50, 1% HSA): 0.13 nM
half-life [1]: 36 h
